How the values were obtained:
[1] = system: platelets
Experimental: After treatment, the resultant was incubated with shaking at 100 rpm at 37° C. for one hour.

[2] = system: platelets isolated from pig whole blood; experiment: Effect of storage solvent for mitochondria and antithrombotic agent on platelet aggregation; format: cell-based
Experimental: Pig whole blood was centrifuged at 300×g for 5 minutes to obtain a cloudy yellow supernatant containing platelets and plasma. […] The obtained platelet precipitate was replaced with an equal amount of Dulbecco's phosphate-buffered saline (DPBS) solution, washed by centrifugation at 1,500×g for 15 minutes, and resuspended in an equal amount of a fresh DPBS solution.
In order to confirm the effect of a storage solvent for mitochondria and an antithrombotic agent on inhibition of platelet aggregation, the mitochondria of human umbilical cord-derived mesenchymal stem cells (UC-hMSC) were isolated and stored in saline and SHE solution, which is a storage solvent, for one hour, respectively, and the resultant was treated with the platelets isolated from pig whole blood and then treated with heparin. After 1 hour, the result was confirmed with a confocal laser scanning microscope.

[3] = system: platelets in the blood; experiment: Number of platelets in the blood after intravenous injection of mitochondria; format: in vivo, BALB/c-nu/nu mice; settings: UC-hMSC mitochondria 50 μg/0.3 mL, single intravenous injection, mice
Experimental: The specific experimental design, which was performed so as to confirm the effect of reducing the number of platelets during intravascular injection of mitochondria into mice, is as shown in Table 2 below.

## NCC(=O)O [glycine]
[1]; 1 μg UC-hMSC mitochondria in 10 μL Tris-trehalose buffer with glycine 0-100 mM, 1 mL platelet solution, 37° C., one hour
  glycine concentration at which mitochondria-induced platelet aggregation is inhibited: ≥ 25 mM
[1]; low concentration of glycine in Tris-trehalose buffer
  inhibition of mitochondria-induced platelet aggregation at low glycine concentration: could not inhibit platelet aggregation

## heparin
[2]; UC-hMSC mitochondria stored in SHE solution
  inhibition of mitochondria-induced platelet aggregation with rising concentration of antithrombotic agent: inhibited as the concentrations of heparin as an antithrombotic agent increased
[2]; UC-hMSC mitochondria stored in saline and SHE solution, pig platelets
  inhibition of mitochondria-induced platelet aggregation by antithrombotic agent: partially inhibited
[3]
  change in the number of platelets in the blood: recovered to some extent, but the decrease in platelets was not completely inhibited

From patent US12403160B2, “Injection composition containing isolated mitochondria, and use thereof” (Paean Biotechnology Inc., priority 2020, dated 2025)
